Here are results for nine compounds from patent publication US20250197405A1, “HETEROAROMATIC COMPOUNDS AS PKMYT1 INHIBITORS AND USE THEREOF” (INSILICO MEDICINE IP LIMITED, priority 2022, published 2025).

The experiment addresses PKMYT1 (Homo sapiens (Human), UniProt Q99640). In words: PKMYT1 HTRF assay. Format: binding. The note with it: Tracer 178, GST-Tb, compound 10 μM to 0.5 nM. On the procedure: Compound serial dilution was performed by Echo, and the final concentrations varied from 10 μM to 0.5 nM. 5 μL/well of Enzyme solution was added to the assay plate containing the compound. The plate was centrifuged at 1000 rpm for 1 min, and incubated at 25° C. for 15 min. […] Next, 5 μL of GST-Tb was added into the assay plate, the plate was centrifuged at 1000 rpm for 1 min, and incubated at 25° C. for 15 min. The assay plate was read on Envision.

As a reminder, the IC50 is the concentration needed to halve the response being measured. A higher IC50 goes with a need for much substance.

Sequence of PKMYT1 (Q99640 whole entry): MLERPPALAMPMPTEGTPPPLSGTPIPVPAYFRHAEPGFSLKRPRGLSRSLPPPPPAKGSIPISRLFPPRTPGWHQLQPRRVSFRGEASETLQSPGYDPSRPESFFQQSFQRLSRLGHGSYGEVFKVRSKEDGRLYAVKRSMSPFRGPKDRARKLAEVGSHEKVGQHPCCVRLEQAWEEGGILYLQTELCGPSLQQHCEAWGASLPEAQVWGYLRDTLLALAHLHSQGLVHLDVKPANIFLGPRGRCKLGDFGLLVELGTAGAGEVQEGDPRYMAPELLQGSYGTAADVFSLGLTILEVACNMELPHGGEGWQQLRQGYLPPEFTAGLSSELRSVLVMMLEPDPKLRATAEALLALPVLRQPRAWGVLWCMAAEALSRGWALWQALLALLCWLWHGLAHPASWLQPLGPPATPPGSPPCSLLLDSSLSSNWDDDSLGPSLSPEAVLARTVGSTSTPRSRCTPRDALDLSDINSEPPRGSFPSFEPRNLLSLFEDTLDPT

In turn, `COc1nc(C)nc2c1c(C(N)=O)c(N)n2-c1c(C)ccc(O)c1C` (atropisomer, axis not shown) [Compound 7] had an IC50 of 1.5 nM.
Compound `Cc1nc(N2CCC2)c2c(C(N)=O)c(N)n(-c3c(C)ccc(O)c3C)c2n1` (atropisomer, axis not shown) [Compound 8] gave an IC50 of 13 nM. This IC50 lies about 8.7-fold higher than the previous one.
Turning to `Cc1nc(Oc2cnn(C)c2)c2c(C(N)=O)c(N)n(-c3c(C)ccc(O)c3C)c2n1` (atropisomer, axis not shown) [Compound 9], it took 2.8 nM to reach half-maximal inhibition (IC50).
Compound `Cc1ccc(O)c(C)c1-n1c(N)c(C(N)=O)c2cnc(C(F)(F)F)nc21` [Compound 2] gave an IC50 of 8.9 nM.
Next, `Cc1ccc(O)c(C)c1-n1c(N)c(C(N)=O)c2c(=O)n(C)c(C)cc21` [Compound 3, 2-amino-1-(3-hydroxy-2,6-dimethylphenyl)-5,6-dimethyl-4-oxopyrrolo[3,2-c]pyridine-3-carboxamide]: 11.9 nM; `Cc1ncc2c(C(N)=O)c(N)n(-c3c(C)ccc(O)c3Cl)c2n1` [Compound 4, 6-amino-7-(2-chloro-3-hydroxy-6-methylphenyl)-2-methylpyrrolo[2,3-d] pyrimidine-5-carboxamide]: 4.1 nM; `Cc1nc(OC(F)F)c2c(C(N)=O)c(N)n(-c3c(C)ccc(O)c3C)c2n1` [Compound 10]: 3.4 nM.
Regarding `Cc1nc(OCF)c2c(C(N)=O)c(N)n(-c3c(C)ccc(O)c3C)c2n1` [Compound 11], the midpoint of inhibition, the IC50, lay at 2.3 nM.
The figure for `Cc1ccc(O)c(C)c1-n1c(N)c(C(N)=O)c2c(=O)n(CF)c(C)nc21` [Compound 12-P2] is 1.5 nM.
